Results as given in patent US8436006B2, “2-amino-quinazoline derivatives useful as inhibitors of β-secretase (BACE)” (Jansssen Pharmaceutica N.V., priority 2004, dated 2013).

Assays:
Type in all cases: biochemical
[1] = target: T1, β-secretase (BACE) (Homo sapiens, UniProt P56817); assay: BACE Assay-1 (Example 158), MCA-substrate fluorescence; conditions: procedure of Example 158
T1 construct: purchased Panvera
Method: The following standards are reagents were used in this assay: Sodium Citrate trisodium salt dihydrate (Sigma), Citric Acid monohydrate (Merck), PEG8000 (Sigma), MCA-substrate (Bachem), β-secretase (BACE) (Panvera), 96-well plate zwart (Costar (Elscolab)), StatVal (Bachem).
The following standard assay buffer solution was prepared and used in this assay: 0.05 M, pH 5.0 mixture of sodium citrate trisodium salt dihydrate (9.56 g), citric acid monohydrate (3.68 g) and PEG8000 (0.50 g).
The MCA-substrate stock solution was prepared by mixing 10 mg MCA-substrate with 5 mL DMSO for a final solution concentration of 2.0 mg/mL. The substrate work solution was prepared by mixing 0.1 mL substrate in 1.90 mL assay buffer for a final concentration of 0.05 mM. The β-secretase (BACE) work solution was prepared by mixing 8 μL BACE in 2 mL assay buffer for a final concentration of 10 μg/mL.
The screen procedure for this assay was as follows. 60 μL of assay buffer was pippeted into each well of a 96-well plate. To each well was then pipetted 1 μL of test compound at the selected concentration. To each well was then added 20 μL of the β-secretase work solution and 20 μL of the MCA-substrate stock solution.
The procedure for the blank was as follows. 80 μL of assay buffer was pipetted into each well to be used as a blank control. To each well was then added 1 μL of DMSO and 20 μL of MCA-substrate solution in each well.
The procedure for the positive control was as follows. 60 μL of assay buffer was pipetted into each well to be used as a positive control. To each well was then added 1 μL of DMSO, 20 μL of BACE work solution and 20 μL of MCA-substrate stock solution.
For test compounds, measured at multiple concentrations, the measured T0 and T60 values were used to calculate an IC50 value using Graphpad Software (or PIR).

[2] = target: T1, β-secretase (BACE); assay: BACE Assay-2 (Example 159), FS1 substrate, kinetic fluorescence; conditions: procedure of Example 159
Method: (§1) The FS1-substrate stock solution was prepared in DMSO as a 10 mg/mL solution. The FS1-substrate working solution was prepared by diluting the 10 mg/mL stock solution with substrate assay buffer to a final concentration of 300 μg/mL. The β-secretase (BACE) working solution was prepared by diluting a 0.83 mg/mL BACE stock solution with enzyme assay buffer to a final concentration of 4 μg/mL.
Test compounds were dissolved in DMSO at 10 mM.
(§2) The procedure for this assay was as follows: 15 μL of BACE working solution was pipetted into each well of a 96-well plate. To each well was then pipetted 2 μL of test compound at the selected concentration. Test compound and BACE were then mixed with a pipettor and incubated for 20 min at room temperature. To each well was then added 10 μL of the FS1 substrate working solution.
(§3) The procedure for the positive control was as follows: 15 μL of BACE working solution was pipetted into each well to be used as a positive control. To each well was then pipetted 2 μL of vehicle. Vehicle and BACE were then mixed with a pipettor and incubated for 20 min at room temperature. To each well was then added 10 μL of the FS1 substrate working solution.
For test compounds, measured at multiple concentrations, the measured T0 and T60 values were used to calculate an IC50 value using Graphpad Software (or PIR). For test compounds, Ki inhibition was determined as follows: For each compound concentration and positive control, rate of cleavage of substrate (Vi, where i=compound concentration in μM) was determined as Δ Fluorescence/Δ time (min). Cleavage rates (Vi) were plotted as a function of inhibitor concentration in μM [I]. The Ki was then determined by fitting the following equation to the graph of [I] vs Vi Y=aVmax/(50+24*(1+X/Ki)),

[3] = target: T1, β-secretase (BACE); assay: BACE FS1% Inhibition Assay (Example 160); conditions: for inhibition at 3 µM / inhibition at 10 µM / inhibition at 0.3 µM / inhibition at 1 µM: read-out: % Inhibition (FS); for inhibition at 10 µM: 10 μM test compound
[4] = target: T1, β-secretase (BACE); assay: BACE % Inhibition Assay (Example 161), (Aedens)-[…]-(Dabcyl K-amide) substrate; conditions: % error ±10%
Method: The following reagents were used in this assay: sodium acetate, PEG8000 (Sigma), DMSO, HEPES, (Aedens)-[…]-(Dabcyl K-amide) substrate, β-secretase (BACE) (Panvera), and 96-well plate (HE microplate, Molecular Devices).
as §1, with “substrate” for “FS1-substrate”
Test compounds were dissolved in DMSO to 10 mM.
as §2, with “The screening” for “The”, “the” for “the FS1”, “solution. The plates were then incubated for 1 hour at room temperature.” for “solution.”
The procedure for the blank was as follows. 15 μL of assay buffer was pipetted into each well to be used as a blank control. To each well was then added 2 μL of vehicle and 10 μL of substrate working solution. The plates were then incubated for 1 hour at room temperature.
as §3, with “15 μl” for “15 μL”, “the” for “the FS1”, “solution. The plates were then incubated for 1 hour at room temperature.” for “solution.”
For test compounds, % inhibition was determined at each concentration as follows: % Inhibition=[[…]][FI(positive control)−FI(negative control)]

T1 sequence (P56817 46-501): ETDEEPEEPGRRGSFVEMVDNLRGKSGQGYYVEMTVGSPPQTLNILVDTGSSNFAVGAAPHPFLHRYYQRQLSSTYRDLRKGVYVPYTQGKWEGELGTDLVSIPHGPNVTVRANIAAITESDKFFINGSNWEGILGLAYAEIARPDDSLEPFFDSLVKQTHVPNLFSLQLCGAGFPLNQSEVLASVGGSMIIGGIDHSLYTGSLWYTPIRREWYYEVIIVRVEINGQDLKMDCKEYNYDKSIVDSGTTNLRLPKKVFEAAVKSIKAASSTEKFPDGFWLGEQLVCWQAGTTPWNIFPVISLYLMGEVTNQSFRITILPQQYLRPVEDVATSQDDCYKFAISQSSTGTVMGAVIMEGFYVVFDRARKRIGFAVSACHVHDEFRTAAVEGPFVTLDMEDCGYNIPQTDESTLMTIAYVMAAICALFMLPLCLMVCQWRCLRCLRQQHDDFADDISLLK

Row | Compound | IC50 [1] | Ki [2] | inhibition at 3 µM ([3]; 3 μM test compound) | inhibition at 0.3 µM ([3]; 0.3 μM test compound) | inhibition at 1 µM ([3]; 1 μM test compound) | % Inhibition ([4]; 0.3 μM test compound) | also measured
1 | NC1=Nc2ccc(Oc3ccccc3)cc2CN1Cc1cccc(C(=O)N(C2CCCCC2)C2CCCCC2)c1 [Compound 98] |  |  |  |  |  |  | % Inhibition (FS) ([3]; 0.3 μM test compound): 49%; % Inhibition (FS) ([3]; 1 μM test compound): 93%; % Inhibition (FS) ([3]; 3 μM test compound): 114%; % Inhibition ([4]; 3 μM test compound): 76%; % Inhibition ([4]; 10 μM test compound): 99%
2 | CN(C(=O)CC(C1CCCCC1)N1Cc2cc(Oc3ccccc3)ccc2N=C1N)C1CCCCC1 (stereo not drawn) [Compound 199] |  | 0.51 µM | 82% | < 30% | < 30% |  | 
3 | CCCN1Cc2cc(Oc3cccc(NS(=O)(=O)c4cccc5nsnc45)c3)ccc2N=C1N [Compound 247] | 1.7 µM |  |  |  |  |  | 
4 | CC(C)(C)OC(=O)NCC(C1CCCCC1)N1Cc2cc(Oc3ccccc3)ccc2N=C1N (stereo not drawn) [Compound 257] | 0.083 µM | 0.056 µM |  | 67% | 105% |  | 
5 | NC1=Nc2ccc(Oc3ccccc3)cc2CN1C(CNC(=O)C12CC3CC(CC(C3)C1)C2)C1CCCCC1 (stereo not drawn) [Compound 312] | 0.039 µM | 0.039 µM | 115% | 74% | 103% |  | 
6 | NC1=Nc2ccc(Oc3ccccc3)cc2CN1C(CNC(=O)C1CCCCC1)c1ccccc1 (stereo not drawn) [Compound 342] |  |  |  |  |  | 50% | % Inhibition ([4]; 1 μM test compound): 93%
7 | NC1=Nc2ccc(Oc3ccccc3)cc2CN1C(CNC(=O)CCC1CCCC1)C1CCCCC1 (stereo not drawn) [Compound 366] |  |  |  |  |  | 64% | 
8 | NC1=Nc2ccc(Oc3ccccc3)cc2CN1C(CNC(=O)C1(c2ccc(Cl)cc2)CCCC1)C1CCCCC1 (stereo not drawn) [Compound 390] |  | 0.57 µM |  |  |  |  | inhibition at 0.3 µM ([4]; 0.3 μM test compound): < 30%; inhibition at 1 µM ([4]; 1 μM test compound): 50%; inhibition at 3 µM ([4]; 3 μM test compound): 102%
9 | NC1=Nc2ccc(Oc3ccccc3)cc2CN1C(CCNC(=O)C1CCCCC1)C1CCCCC1 (stereo not drawn) [Compound 391] |  |  |  |  |  | 35% | % Inhibition ([4]; 1 μM test compound): 93%; % Inhibition ([4]; 3 μM test compound): 115%
10 | NC1=Nc2ccc(Oc3ccccc3)cc2CN1C(CCNC(=O)C1CCCC1)C1CCCCC1 (stereo not drawn) [Compound 392] |  |  |  |  |  | 75% | % Inhibition ([4]; 3 μM test compound): 120%

Continued, in another order:

Row | IC50 [1] | Ki [2] | inhibition at 3 µM ([3]; 3 μM test compound) | inhibition at 0.3 µM ([3]; 0.3 μM test compound) | inhibition at 1 µM ([3]; 1 μM test compound) | % Inhibition ([4]; 0.3 μM test compound) | Compound | also measured
11 | 0.6 µM | 0.32 µM | 68% |  |  |  | CCCC(CCCC(=O)NC1CCCCC1)N1Cc2cc(Oc3ccccc3)ccc2N=C1N (stereo not drawn) [Compound 91] | inhibition at 10 µM [3]: 117%
12 | 0.072 µM | 0.13 µM | 97% |  |  |  | CCCC(CCC(=O)NC1CCCCCC1)N1Cc2cc(Oc3ccccc3)ccc2N=C1N (stereo not drawn) [Compound 128] | inhibition at 10 µM [3]: 108%
13 |  | 0.46 µM | 90% | < 30% | < 30% |  | CCCCCC(CCC(=O)NC1CCCCCC1)N1Cc2cc(Oc3ccccc3)ccc2N=C1N (stereo not drawn) [Compound 150] | 
14 | 0.39 µM | 0.18 µM |  |  |  |  | CC(C)(C)C(=O)NCC(C1CCCCC1)N1Cc2cc(Oc3ccccc3)ccc2N=C1N (stereo not drawn) [Compound 317] | inhibition at 0.3 µM ([4]; 0.3 μM test compound): < 30%; inhibition at 1 µM ([4]; 1 μM test compound): 66%; inhibition at 3 µM ([4]; 3 μM test compound): 107%
15 |  |  |  |  |  | 81% | CCCC(CNC(=O)C1CCCCC1)N1Cc2cc(Oc3ccccc3)ccc2N=C1N (stereo not drawn) [Compound 343] | 
16 |  |  |  |  |  | 85% | CC(C)CC(=O)NCC(C1CCCCC1)N1Cc2cc(Oc3ccccc3)ccc2N=C1N (stereo not drawn) [Compound 389] | % Inhibition ([4]; 1 μM test compound): 112%; % Inhibition ([4]; 3 μM test compound): 120%
17 |  | 0.056 µM | 121% | 78% | 113% |  | CCCC(CNC(=O)C12CC3CC(CC(C3)C1)C2)N1Cc2cc(Oc3ccccc3)ccc2N=C1N (stereo not drawn) [Compound 602] | 
18 |  | 0.033 µM | 122% | 101% | 114% |  | CCC[C@H](CNC(=O)CCC(C)C)N1Cc2cc(Oc3ccccc3)ccc2N=C1N [Compound 603] | 
